According to the NIST ThermoML archive (doi:10.1016/j.fluid.2008.01.004):

Assay: mn = molality of the nth substance listed, in mol/kg
Settings: 101 kPa, Liquid; for molar conductivity: digital conductivity meter; for speed of sound: Sing-around technique in a fixed-path interferometer

O=P([O-])([O-])[O-].[Na+].[Na+].[Na+] [trisodium phosphate] + O
Settings | mass density, 293.15 K [kg/m3] | mass density, 298.15 K [kg/m3] | mass density, 303.15 K [kg/m3] | molar conductivity, 293.15 K [S·m2/mol] | molar conductivity, 298.15 K [S·m2/mol] | molar conductivity, 303.15 K [S·m2/mol] | speed of sound, 298.15 K [m/s] | speed of sound, 303.15 K [m/s]
m1 = 0.0026 | – | – | – | – | 0.0415 | 0.0409 | – | –
m1 = 0.0039 | – | – | – | – | 0.0401 | 0.0404 | – | –
m1 = 0.0053 | – | – | – | – | 0.0392 | 0.0398 | – | –
m1 = 0.0089 | 999.952 | 998.77 | 997.355 | – | – | – | 1499.3 | 1511.7
m1 = 0.0105 | 1000.27 | 999.088 | 997.668 | – | 0.0359 | 0.0367 | 1499.8 | 1512.1
m1 = 0.0116 | 1000.49 | 999.3 | 997.879 | – | – | – | 1500.2 | 1512.5
m1 = 0.0132 | 1000.8 | 999.611 | 998.187 | – | 0.0347 | 0.0355 | 1500.5 | 1512.8
m1 = 0.0183 | 1001.83 | 1000.62 | 999.189 | – | 0.0328 | 0.0333 | 1501.8 | 1514.1
m1 = 0.0234 | 1002.81 | 1001.6 | 1000.15 | – | 0.031 | 0.0318 | 1503.3 | 1515.6
m1 = 0.0342 | 1004.92 | 1003.68 | 1002.22 | – | 0.028 | 0.029 | 1505.8 | 1518
m1 = 0.045 | 1007.02 | 1005.76 | 1004.28 | – | 0.0263 | 0.0274 | 1508.5 | 1520.6
m1 = 0.0563 | 1009.2 | 1007.91 | 1006.41 | – | 0.025 | 0.0259 | 1511.1 | 1523.2
m1 = 0.0662 | 1011.09 | 1009.78 | 1008.27 | – | 0.0239 | 0.0248 | 1513.4 | 1525.5
m1 = 0.0767 | – | – | – | – | 0.0231 | 0.0238 | – | –
m1 = 0.088 | 1015.29 | 1013.95 | 1012.39 | – | 0.0221 | 0.023 | 1518.5 | 1530.5
m1 = 0.0968 | 1016.97 | 1015.61 | 1014.04 | 0.0206 | 0.0217 | 0.0226 | 1520.6 | 1532.4
m1 = 0.1086 | 1019.2 | 1017.82 | 1016.24 | 0.0201 | 0.0211 | 0.0216 | 1523.3 | 1535
m1 = 0.1133 | 1020.11 | 1018.73 | 1017.13 | 0.0198 | 0.0207 | 0.0215 | 1524.3 | 1536.1
m1 = 0.1296 | 1023.21 | 1021.79 | 1020.18 | 0.0189 | 0.0199 | 0.0208 | 1528 | 1539.6
m1 = 0.141 | 1025.39 | 1023.96 | 1022.32 | 0.0185 | 0.0195 | 0.0201 | 1530.7 | 1542.2
m1 = 0.1515 | 1027.32 | 1025.87 | 1024.22 | 0.0182 | 0.0193 | 0.0198 | 1532.9 | 1544.4
m1 = 0.1638 | 1029.67 | 1028.19 | 1026.53 | 0.0181 | 0.0191 | 0.0198 | 1535.7 | 1547.1
m1 = 0.1755 | 1031.84 | 1030.35 | 1028.66 | 0.0176 | 0.0186 | 0.0193 | 1538.3 | 1549.6
m1 = 0.1868 | 1034.01 | 1032.5 | 1030.8 | 0.0172 | 0.018 | 0.0186 | 1540.8 | 1552.1
m1 = 0.1954 | 1035.55 | 1034.03 | 1032.32 | 0.0171 | 0.0178 | 0.0182 | 1542.7 | 1553.9
m1 = 0.2224 | 1040.71 | 1039.14 | 1037.39 | 0.0162 | 0.0169 | 0.0173 | 1548.8 | 1559.9
m1 = 0.2333 | 1042.76 | 1041.17 | 1039.41 | 0.016 | 0.0168 | 0.0171 | 1551.2 | 1562.2
m1 = 0.2509 | 1045.97 | 1044.36 | 1042.57 | 0.0157 | 0.0163 | 0.0167 | 1555 | 1565.9
